Among the data in PubChem BioAssay (NCI) are GI50 and TGI values, retold here.

“And” between values parts separate entries of the source, which are not always exact repeats. Equal entries are not always repeated.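 Cultured in 96-well plates, cells were exposed to test compound for 48 hours across five concentrations. Abbreviation: GI50, concentration required for 50% inhibition of growth. TGI: total growth inhibition.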 A value given as a limit tells only on which side of the number the result lay.

Common to all, as to assay: NCI-60 cell line screen, 48 h
Experiment [1] deals with OVCAR-5 ovarian.
Experiment [2] deals with TK-10 renal.
Experiment [3] concerns BT-549 breast.
In experiment [4] the test system is UO-31 renal.
For experiment [5], the system named is SR leukemia.
The test system of experiment [6] is SK-OV-3 ovarian.
The subject of experiment [7] is HT29 colon.
For experiment [8], the system named is A549 NSCLC.
Experiment [9] has as its system MOLT-4 leukemia.
Experiment [10] has as its system HL-60(TB) leukemia.

For the compound `COc1cc2c(c(OC)c1OC)-c1ccc(N)c(=O)cc1[C@@H](NC(C)=O)CC2`, the GI50 is 0.202 µM in experiment [1]; 0.0852 µM in experiment [2]; 0.0164 µM in experiment [3]; 0.705 µM in experiment [4]; less than 0.01 µM in experiment [5]; 0.0388 µM in [6]. In addition, the GI50 in experiment [7] was less than 0.0159 µM; in experiment [8], 0.0563 µM; in experiment [9] it was 0.0395 µM; in experiment [10], 0.0171 µM. The TGI in [1] is more than 100 µM; in experiment [2], more than 100 µM; in experiment [3], 0.0744 µM; in experiment [4] it was more than 100 µM; in experiment [5] it was more than 100 µM; in experiment [6], more than 100 µM. Moreover, the TGI in experiment [7] was 0.0688 µM; in [8], more than 100 µM; in experiment [9], more than 100 µM.
On to `C=C(CCCCCCCCC)CC(=O)SCCNC(=O)CCNC(=O)C(O)C(C)(C)COP(=O)(O)OP(=O)(O)OCC1OC(n2cnc3c(N)ncnc32)C(O)C1OP(=O)(O)O` (stereo not given), for which the TGI in experiment [1], in experiment [2], in [3], in experiment [4], in [5] and in experiment [6] was more than 100 µM each time. In addition, the TGI was more than 100 µM in [7], more than 100 µM in experiment [8], more than 100 µM in [9] and more than 90.9 µM in experiment [10].
Consider `CCc1n(Cc2ccc3ccccc3n2)cc[n+]1Cc1ccc2ccccc2n1`, for which the GI50 in experiment [1] is 1.48 µM; in experiment [2], 5.5 µM; in [3], 0.278 µM; in experiment [4], 21.2 µM; in [5], 0.0753 µM; in [6], 1.39 µM. Moreover, the GI50 in experiment [7] was 0.263 µM; in [8], 5.27 µM; in experiment [9] it was 0.437 µM; in [10], 0.0329 µM. Also, the TGI in experiment [1] is 22.9 µM; in experiment [2] it was 26.3 µM; in experiment [3], 11.2 µM; in [4], more than 100 µM; in experiment [5], 12.5 µM; in experiment [6] it was 15.1 µM. Further, the TGI in [7] is 12 µM; in experiment [8], more than 100 µM; in [9], 10.1 µM; in experiment [10] it was 0.262 µM.
Regarding `O=Nc1c(-c2c(O)[nH]c3ccc([N+](=O)[O-])cc23)[nH]c2ccc(O)cc12`, the GI50 was 1.65 µM in [1]; 2.24 µM in [2]; 0.463 µM in experiment [3]; 0.258 µM in experiment [5]; 12.4 µM in experiment [7]; 0.674 µM in [8]. Further, the results for the GI50 in [9] and in experiment [10] were 0.359 µM and 0.312 µM, respectively. For the same compound, the TGI is 51.1 µM in experiment [1]; more than 100 µM in experiment [2]; more than 100 µM in experiment [3]; 12.6 µM in experiment [5]; more than 100 µM in experiment [7]; more than 60.6 µM in experiment [8]. In addition, the results for the TGI in experiment [9] and in experiment [10] were 4.21 µM and 1.04 µM, respectively.
For the compound `CCn1c(C(=O)N(C2CC2)C2CC2)cc2c3c(ncn3C)c(Nc3cc(C)n(C)n3)nc21`, the GI50 was more than 100 µM in experiment [1]; more than 100 µM in experiment [2]; more than 100 µM in experiment [3]; more than 38.5 µM in experiment [4]; 16.8 µM in [5]; more than 100 µM in [6]. Further, the GI50 in experiment [7], in experiment [8], in [9] and in [10] was more than 100 µM throughout. Also, the TGI in experiment [1], in experiment [2], in experiment [3], in experiment [4], in [5] and in experiment [6] was more than 100 µM throughout. For the same compound, the TGI in experiment [7], in experiment [8], in experiment [9] and in [10] was more than 100 µM throughout.
`O=C1C(c2c[nH]c3ccccc23)=C(c2c[nH]c3ccccc23)C(=O)N1O`: the GI50 in experiment [1] is more than 25 µM; in [2] it was more than 25 µM; in experiment [3], more than 25 µM; in [4], 5.78 µM; in experiment [5], more than 25 µM; in [6], more than 25 µM. The GI50 in experiment [7], in [8], in [9] and in experiment [10] was more than 25 µM throughout. Further, the TGI in experiment [1], in experiment [2], in [3], in experiment [4], in experiment [5] and in experiment [6] was more than 25 µM throughout. Further, the TGI in experiment [7], in experiment [8], in [9] and in [10] was more than 25 µM in each case.
As for `CCCC(=O)Nc1cc(C(=O)N2C[C@@H]3C[C@]34C2=CC(=O)c2[nH]cc(C)c24)n(COC)c1`, the GI50 is 3.86 µM in experiment [1]; 3.3 µM in experiment [2]; 3 µM in [3]; 26.7 µM in experiment [4]; 4.32 µM in [6]; 16.6 µM in experiment [8]. Moreover, the GI50 in experiment [9] was 0.523 µM. The TGI in [1] is 50 µM and 10.6 µM; in experiment [2], 23 µM and 7.37 µM; in experiment [3], 29.5 µM and 11.3 µM; in experiment [4], 17.3 µM and 94.4 µM; in experiment [5], 2.09 µM; in experiment [6], 43.8 µM and 17.9 µM. Further, the TGI was 24.6 µM and 29 µM in experiment [7]; 40.7 µM and 47.9 µM in experiment [8]; 3.3 µM and 23.2 µM in [9]; 7.8 µM in experiment [10].
Consider `O=C(/C=C/C12c3ccccc3C(c3ccccc31)C1C(=O)N(c3ccccc3)C(=O)C12)c1ccccc1` (stereo not given), for which the GI50 in experiment [1] was 1.91 µM; in experiment [2] it was 6.22 µM; in experiment [3], 1.37 µM; in [5], 2.02 µM; in experiment [6], 28.3 µM; in experiment [7], 2.69 µM. For the same compound, the GI50 was 2.58 µM in experiment [8], 1.23 µM in experiment [9] and 1.02 µM in [10]. In addition, the TGI is 5.02 µM in experiment [1]; more than 100 µM in experiment [2]; 3.02 µM in experiment [3]; more than 100 µM in experiment [5]; more than 100 µM in experiment [6]; more than 100 µM in experiment [7]. In addition, the TGI is more than 100 µM in [8], more than 100 µM in experiment [9] and 8.66 µM in experiment [10].
